Test results published in patent US10017527B2, “KLK4 inhibitors” (Universiteit Antwerpen, priority 2014, dated 2018).

What was measured:
Format in all cases: biochemical
AcHE = AcHE (Homo sapiens, UniProt P22303); assay: AcHE inhibition; conditions: read-out: IC50 AcHE
tPA (recombinant) = target: T1, tPA (recombinant) (Homo sapiens, UniProt P00750); assay: tPA inhibition, chromogenic substrate Biophen CS-05(88); conditions: Tris buffer pH 8.3; read-out: IC50 tPA
T1 construct: purchased Nodia
Method in brief: (§1)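 Chromogenic tPA and neutrophil elastase assays were monitored at 405 nm absorption. KLK1 and KLK2 IC50s came from a common method.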

uPA (recombinant) = target: T2, uPA (recombinant) (Homo sapiens, UniProt P00749); assay: uPA inhibition, chromogenic substrate Biophen CS-61(44); conditions: Tris buffer pH 8.8; read-out: IC50 uPA
T2 construct: purchased Nodia

Plasmine (human plasma) = target: T3, Plasmine (human plasma) (Homo sapiens, UniProt P00747); assay: Plasmin inhibition, chromogenic substrate Biophen CS-21(66); conditions: Plasmin; Tris buffer pH 7.4; read-out: IC50 PLM
T3 construct: purchased Sigma-Aldrich; host or cells: human plasma
Description: (§2) The IC50 values For KLK1, KLK2 and KLK8 were obtained in a similar way. For plasmin, tPA, thrombin, Fxa, HNE, Plasma kallikrein Chromogenic substrates were used (absorption: 405 nm). (KLK2, KLK4, KLK8 were supplied by Viktor Magdolen TUMunich (TUM)).

Thrombine (human plasma) = target: T4, Thrombine (human plasma) (Homo sapiens, UniProt P00734); assay: Thrombin inhibition, chromogenic substrate Biophen CS-21(66); conditions: Thrombin; Tris buffer pH 8.3; read-out: IC50 THR
T4 construct: purchased Sigma-Aldrich; host or cells: human plasma

KLK4 = target: T5, KLK4 (Homo sapiens, UniProt Q9Y5K2); assay: KLK4 enzymatic inhibition, fluorogenic substrate Boc-Val-Pro-Arg-AMC; conditions: 15 min pre-incubation at 37° C., Tris buffer pH 8.3; read-out: IC50 KLK4
T5 construct: purchased Viktor Magdolen (TUM), supplied by an academic laboratory

[1] = target: T6, Neurtophil Elastase(human) (Homo sapiens, UniProt P08246); assay: Neutrophil elastase inhibition, chromogenic substrate MeOSuc-Ala-Ala-Pro-Val-pNA; conditions: Tris buffer pH 7.8; read-out: IC50 HNE
T6 construct: purchased Enzo-life sciences
T6 sequence (P08246 30-267): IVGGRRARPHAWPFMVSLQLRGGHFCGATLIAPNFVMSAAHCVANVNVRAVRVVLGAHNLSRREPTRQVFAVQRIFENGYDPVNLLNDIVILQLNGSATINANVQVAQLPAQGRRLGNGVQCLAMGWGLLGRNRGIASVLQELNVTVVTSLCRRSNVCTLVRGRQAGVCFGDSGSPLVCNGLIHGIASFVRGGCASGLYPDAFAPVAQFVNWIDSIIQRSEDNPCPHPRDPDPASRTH
Description: as §2

FXa = target: T7, FXa (Homo sapiens, UniProt P00742); assay: FXa inhibition, chromogenic substrate Biophen CS-11(32); conditions: Tris buffer pH 8.3; read-out: IC50 FXa
T7 construct: purchased Nodia
Description: as §2

PlasmaKLK (human plasma) = target: T8, PlasmaKLK (human plasma) (Homo sapiens, UniProt P03952); assay: Plasma kallikrein inhibition, chromogenic substrate Biophen CS-31(02); conditions: Plasma KLK; Tris buffer pH 7.8; read-out: IC50 pKLK
T8 construct: purchased Sigma-Aldrich; host or cells: human plasma
Description: as §2

KLK1 (human) = target: T9, KLK1 (human) (Homo sapiens, UniProt P06870); assay: KLK1 inhibition, fluorogenic substrate H-Pro-Phe-Arg-AMC; conditions: Tris buffer pH 7.8; read-out: IC50 KLK1
T9 construct: purchased Prospec
Method in brief: as §1

KLK2 (human) = target: T10, KLK2 (human) (Homo sapiens, UniProt P20151); assay: KLK2 inhibition, fluorogenic substrate H-Pro-Phe-Arg-AMC; conditions: Tris buffer pH 8.3; read-out: IC50 KLK2
T10 construct: purchased Viktor Magdolen, TUMunich (TUM), supplied by an academic laboratory
Method in brief: as §1

Matriptase = target: T11, Matriptase (Homo sapiens, UniProt Q9Y5Y6); assay: Matriptase inhibition; conditions: Matriptase; read-out: IC50 MAT
T11 sequence (Q9Y5Y6 1-855): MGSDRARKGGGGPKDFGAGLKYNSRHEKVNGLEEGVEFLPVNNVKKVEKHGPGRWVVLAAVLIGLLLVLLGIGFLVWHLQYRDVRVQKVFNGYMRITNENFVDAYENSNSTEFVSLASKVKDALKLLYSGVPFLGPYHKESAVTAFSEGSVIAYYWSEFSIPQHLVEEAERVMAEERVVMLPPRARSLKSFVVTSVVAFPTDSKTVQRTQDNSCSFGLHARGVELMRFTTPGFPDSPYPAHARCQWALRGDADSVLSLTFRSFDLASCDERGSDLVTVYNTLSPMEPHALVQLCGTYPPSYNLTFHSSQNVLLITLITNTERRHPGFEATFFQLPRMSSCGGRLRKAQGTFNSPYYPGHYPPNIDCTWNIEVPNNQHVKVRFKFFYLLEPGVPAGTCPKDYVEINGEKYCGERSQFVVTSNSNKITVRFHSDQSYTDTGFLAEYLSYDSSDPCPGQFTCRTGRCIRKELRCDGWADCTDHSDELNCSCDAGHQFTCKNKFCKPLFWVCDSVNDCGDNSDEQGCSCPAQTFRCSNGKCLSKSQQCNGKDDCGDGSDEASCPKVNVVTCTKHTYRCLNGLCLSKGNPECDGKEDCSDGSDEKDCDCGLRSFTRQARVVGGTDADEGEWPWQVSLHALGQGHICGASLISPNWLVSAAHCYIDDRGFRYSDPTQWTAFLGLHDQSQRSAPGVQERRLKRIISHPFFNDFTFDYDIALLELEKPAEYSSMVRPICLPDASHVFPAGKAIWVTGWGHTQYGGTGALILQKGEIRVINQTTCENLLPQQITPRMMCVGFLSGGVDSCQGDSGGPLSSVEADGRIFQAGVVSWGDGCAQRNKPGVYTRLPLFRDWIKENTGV

T8 sequence (P03952 391-638 limits assumed): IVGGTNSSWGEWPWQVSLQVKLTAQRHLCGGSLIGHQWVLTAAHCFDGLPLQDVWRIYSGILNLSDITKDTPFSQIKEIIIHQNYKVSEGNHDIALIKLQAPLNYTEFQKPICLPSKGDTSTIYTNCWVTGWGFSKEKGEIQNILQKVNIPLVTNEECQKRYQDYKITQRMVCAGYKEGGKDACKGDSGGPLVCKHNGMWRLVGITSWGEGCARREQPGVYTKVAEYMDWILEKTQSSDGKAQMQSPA
T8 sequence (P03952 20-390 partner limits assumed): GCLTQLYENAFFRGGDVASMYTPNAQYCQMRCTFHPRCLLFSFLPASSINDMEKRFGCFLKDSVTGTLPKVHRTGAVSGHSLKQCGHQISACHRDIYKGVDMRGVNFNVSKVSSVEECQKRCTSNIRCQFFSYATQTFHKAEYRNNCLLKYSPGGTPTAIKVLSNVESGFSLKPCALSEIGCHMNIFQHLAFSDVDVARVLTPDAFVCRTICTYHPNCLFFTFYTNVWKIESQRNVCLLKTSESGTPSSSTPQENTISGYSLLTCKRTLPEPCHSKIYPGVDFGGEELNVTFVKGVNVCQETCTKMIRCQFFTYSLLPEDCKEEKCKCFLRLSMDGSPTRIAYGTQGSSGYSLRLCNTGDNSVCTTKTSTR
T3 sequence (P00747 581-810 limits assumed): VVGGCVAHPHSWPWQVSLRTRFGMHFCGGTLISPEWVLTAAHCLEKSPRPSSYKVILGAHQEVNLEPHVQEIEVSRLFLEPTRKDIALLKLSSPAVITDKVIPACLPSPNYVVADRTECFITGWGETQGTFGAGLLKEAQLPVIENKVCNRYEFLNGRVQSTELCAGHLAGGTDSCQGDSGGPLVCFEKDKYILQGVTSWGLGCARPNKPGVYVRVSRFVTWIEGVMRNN
T3 sequence (P00747 98-580 partner limits assumed): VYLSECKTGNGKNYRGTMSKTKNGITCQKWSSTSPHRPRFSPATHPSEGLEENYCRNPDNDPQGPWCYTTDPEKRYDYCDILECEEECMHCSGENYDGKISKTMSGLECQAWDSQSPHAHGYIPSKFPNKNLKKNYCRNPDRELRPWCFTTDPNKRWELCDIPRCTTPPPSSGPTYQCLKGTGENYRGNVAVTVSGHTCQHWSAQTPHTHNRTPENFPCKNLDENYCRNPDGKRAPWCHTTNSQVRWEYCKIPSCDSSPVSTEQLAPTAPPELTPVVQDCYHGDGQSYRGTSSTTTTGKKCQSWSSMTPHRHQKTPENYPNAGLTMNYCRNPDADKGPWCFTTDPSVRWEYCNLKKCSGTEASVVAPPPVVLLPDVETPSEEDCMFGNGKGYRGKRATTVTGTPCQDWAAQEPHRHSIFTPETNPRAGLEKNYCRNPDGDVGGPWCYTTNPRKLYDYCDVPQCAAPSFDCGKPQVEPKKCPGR
T7 sequence (P00742 235-488 limits assumed): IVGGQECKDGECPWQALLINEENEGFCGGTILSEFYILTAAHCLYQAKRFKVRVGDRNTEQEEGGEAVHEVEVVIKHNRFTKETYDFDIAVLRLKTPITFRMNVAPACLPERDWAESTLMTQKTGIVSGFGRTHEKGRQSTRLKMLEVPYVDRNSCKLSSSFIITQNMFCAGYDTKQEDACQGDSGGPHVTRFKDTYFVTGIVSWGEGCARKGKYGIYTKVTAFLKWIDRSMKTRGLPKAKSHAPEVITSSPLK
T7 sequence (P00742 41-179 partner limits assumed): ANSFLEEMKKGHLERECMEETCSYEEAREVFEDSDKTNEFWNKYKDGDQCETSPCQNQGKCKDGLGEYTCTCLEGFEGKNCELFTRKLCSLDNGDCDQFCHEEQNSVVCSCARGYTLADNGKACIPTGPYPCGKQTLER
T10 sequence (P20151 25-261): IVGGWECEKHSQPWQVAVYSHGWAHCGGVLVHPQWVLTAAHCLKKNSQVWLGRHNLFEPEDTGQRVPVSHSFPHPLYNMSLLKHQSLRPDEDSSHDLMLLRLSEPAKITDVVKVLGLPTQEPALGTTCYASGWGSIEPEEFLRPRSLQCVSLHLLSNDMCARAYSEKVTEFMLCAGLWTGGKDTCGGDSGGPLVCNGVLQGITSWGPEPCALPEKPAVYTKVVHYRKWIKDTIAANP
Sequence of AcHE (P22303 32-614): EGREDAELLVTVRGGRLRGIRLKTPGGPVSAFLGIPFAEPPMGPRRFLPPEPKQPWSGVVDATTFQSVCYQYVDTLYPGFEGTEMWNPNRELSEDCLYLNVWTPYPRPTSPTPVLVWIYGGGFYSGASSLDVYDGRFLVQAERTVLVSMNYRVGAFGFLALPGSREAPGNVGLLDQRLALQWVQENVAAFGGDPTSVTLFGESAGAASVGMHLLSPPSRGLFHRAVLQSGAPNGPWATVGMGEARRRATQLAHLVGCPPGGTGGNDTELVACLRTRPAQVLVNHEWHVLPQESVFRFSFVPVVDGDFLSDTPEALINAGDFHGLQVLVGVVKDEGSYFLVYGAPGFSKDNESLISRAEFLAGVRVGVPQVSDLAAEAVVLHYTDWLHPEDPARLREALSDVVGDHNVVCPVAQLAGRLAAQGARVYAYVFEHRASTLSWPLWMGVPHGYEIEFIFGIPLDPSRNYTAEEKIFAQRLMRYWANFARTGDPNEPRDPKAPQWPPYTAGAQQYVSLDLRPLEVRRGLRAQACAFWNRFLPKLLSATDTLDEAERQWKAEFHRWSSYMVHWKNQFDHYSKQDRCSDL
T5 sequence (Q9Y5K2 31-254): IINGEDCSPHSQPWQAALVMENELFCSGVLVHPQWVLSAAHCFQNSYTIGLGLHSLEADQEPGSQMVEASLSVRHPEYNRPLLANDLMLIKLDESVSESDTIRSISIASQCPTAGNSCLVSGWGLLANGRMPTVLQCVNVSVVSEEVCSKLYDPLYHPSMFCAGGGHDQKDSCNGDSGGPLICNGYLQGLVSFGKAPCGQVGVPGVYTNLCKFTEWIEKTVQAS
T9 sequence (P06870 25-262): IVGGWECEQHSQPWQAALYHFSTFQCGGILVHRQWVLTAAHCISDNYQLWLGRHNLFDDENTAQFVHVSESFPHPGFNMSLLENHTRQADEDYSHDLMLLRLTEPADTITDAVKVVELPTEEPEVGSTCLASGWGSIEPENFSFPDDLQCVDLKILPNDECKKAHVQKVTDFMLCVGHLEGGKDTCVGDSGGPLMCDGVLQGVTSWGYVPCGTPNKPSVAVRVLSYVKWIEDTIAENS
T1 sequence (P00750 36-562, species assumed): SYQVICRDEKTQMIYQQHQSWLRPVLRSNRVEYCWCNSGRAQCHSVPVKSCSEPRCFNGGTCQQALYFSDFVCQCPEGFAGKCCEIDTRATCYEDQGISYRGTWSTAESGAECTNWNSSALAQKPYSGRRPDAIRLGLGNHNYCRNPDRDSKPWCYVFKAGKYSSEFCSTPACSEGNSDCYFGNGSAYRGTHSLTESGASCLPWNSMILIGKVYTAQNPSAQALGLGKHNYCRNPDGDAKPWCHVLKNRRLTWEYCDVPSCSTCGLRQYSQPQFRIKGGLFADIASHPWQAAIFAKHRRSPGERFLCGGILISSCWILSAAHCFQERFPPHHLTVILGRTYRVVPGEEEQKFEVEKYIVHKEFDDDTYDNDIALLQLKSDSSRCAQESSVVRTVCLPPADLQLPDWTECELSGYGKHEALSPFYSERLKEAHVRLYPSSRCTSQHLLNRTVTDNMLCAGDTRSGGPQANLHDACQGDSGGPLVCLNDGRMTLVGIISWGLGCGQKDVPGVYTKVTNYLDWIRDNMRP

COCCOCCOC(=O)NC(c1ccc(NC(=N)N)cc1)P(=O)(Oc1ccccc1)Oc1ccccc1.O=C(O)C(F)(F)F (stereo not drawn) [Compound 28, 2-(2-methoxyethoxy)ethyl((diphenoxyphosphoryl)(4-guanidinophenyl)methyl) carbamate 2,2,2-trifluoroacetate] was tested, and the IC50 (AcHE) was 10 to 250 µM, the IC50 (tPA (recombinant)) was over 250 µM and the IC50 (uPA (recombinant)) was 10 to 250 µM. It also gave an IC50 (Plasmine (human plasma)) of 10 to 250 µM, an IC50 (Thrombine (human plasma)) of over 250 µM and an IC50 (KLK4) of under 0.1 µM. For the same compound, the IC50 [1] was over 250 µM, the IC50 (FXa) was over 250 µM and the IC50 (PlasmaKLK (human plasma)) was 10 to 250 µM. For the same compound, the IC50 (KLK1 (human)) was 10 to 250 µM, the IC50 (KLK2 (human)) was 0.1 to 1 µM and the IC50 (Matriptase) was 2.5 to 10 µM.

N=C(N)Nc1ccc(C(NC(=O)OCCOc2ccccc2)P(=O)(Oc2ccccc2)Oc2ccccc2)cc1.O=C(O)C(F)(F)F (stereo not drawn) [Compound 30, 2-phenoxyethyl((diphenoxyphosphoryl)(4-guanidinophenyl)methyl)carbamate 2,2,2-trifluoroacetate] gave an IC50 (AcHE) of 10 to 250 µM, an IC50 (tPA (recombinant)) of over 250 µM and an IC50 (uPA (recombinant)) of 2.5 to 10 µM. It also gave an IC50 (Plasmine (human plasma)) of 10 to 250 µM, an IC50 (Thrombine (human plasma)) of over 250 µM and an IC50 (KLK4) of under 0.1 µM. It also gave an IC50 [1] of over 250 µM, an IC50 (FXa) of 10 to 250 µM and an IC50 (PlasmaKLK (human plasma)) of over 250 µM. The IC50 (KLK1 (human)) was 2.5 to 10 µM, the IC50 (KLK2 (human)) was 0.1 to 1 µM and the IC50 (Matriptase) was 2.5 to 10 µM.
